The record followed here is patent publication US9669063B2, “Composition for prevention, amelioration or treatment of metabolic syndrome” (MORISHITA JINTAN CO., LTD., priority 2012, dated 2017).

The assay relates to diet-induced obese mice. Description: Test Example 2: diet-induced obese mice on low-calorie feed with RHP, caffeine or their mixture, body weight, calorie intake, epididymal fat. It counts as in vivo, KK mice. How it is done:
Mice were fed with a high-calorie feed for the preparation of diet-induced obese mice. The calorie intake of the diet-induced obese mice was restricted so as to induce a state of facilitated resolution and utilization of body fat, and then the composition of the present invention containing a rose hip extract and caffeine was given to the mice. In this way, examination was conducted to determine whether the composition could facilitate the resolution and utilization of body fat and thereby ameliorate obesity. Five-week-old male KK mice were fed with water and the powder feed for breeding for three days, and then fed with the high-calorie feed for 3 weeks for the preparation of diet-induced obese mice. The diet-induced obese mice were divided into three groups (six mice per group) and fed with the feed (1) to (3) shown below for 2 weeks. The feeds given to the test groups are as follows. […] After the end of the test, the mice were euthanized, and epididymal fat tissue was harvested and weighed. […] The results are shown as the mean±SD of each group. Diet-induced obese mice were divided into four groups (six mice per group) and fed with the feed (4) to (7) shown below. Other test conditions were the same as in Test Example 1. The results in Table 3 were statistically analyzed by Dunnett's multiple comparison test. The symbol ** indicates a significant difference with a risk less than 1% from the control group.

Consider `Cn1c(=O)c2c(ncn2C)n(C)c1=O` [caffeine], for which the “reduction in weight of epididymal fat tissue as compared with the control group” value (0.025 mass % caffeine in low-calorie feed) was 9.2%. Moreover, the “statistical significance of fat-reducing effect vs control” value (0.025 mass % caffeine in low-calorie feed, Dunnett's test) was “none of them showed any statistically significant fat-reducing effect”. Further, for the setting “low-calorie feed + 0.025 mass % caffeine, 2 weeks, last day of test, mean±SD”, the Body weight turned out to be 35.2 ± 1.8 g. For the same compound, the Epididymal fat weight (low-calorie feed + 0.025 mass % caffeine, 2 weeks, mean±SD) stood at 1.60 ± 0.19 g/100 g body weight.
